Assays:
[1] = Selectivity index, ratio of IC50 for ovine COX-1 to IC50 for recombinant human COX-2
[2] = biological target: T1, Prostaglandin G/H synthase 1 (Ovis aries, UniProt P05979); assay: Inhibition of ovine COX-1 assessed as reduction of prostaglandin-G2 to prostaglandin-H2 by measuring oxidation of 10-acetyl-3,7-dihydroxyphenoxazine to resorufin after 5 mins by fluorescence based assay
T1 sequence (P05979 whole entry): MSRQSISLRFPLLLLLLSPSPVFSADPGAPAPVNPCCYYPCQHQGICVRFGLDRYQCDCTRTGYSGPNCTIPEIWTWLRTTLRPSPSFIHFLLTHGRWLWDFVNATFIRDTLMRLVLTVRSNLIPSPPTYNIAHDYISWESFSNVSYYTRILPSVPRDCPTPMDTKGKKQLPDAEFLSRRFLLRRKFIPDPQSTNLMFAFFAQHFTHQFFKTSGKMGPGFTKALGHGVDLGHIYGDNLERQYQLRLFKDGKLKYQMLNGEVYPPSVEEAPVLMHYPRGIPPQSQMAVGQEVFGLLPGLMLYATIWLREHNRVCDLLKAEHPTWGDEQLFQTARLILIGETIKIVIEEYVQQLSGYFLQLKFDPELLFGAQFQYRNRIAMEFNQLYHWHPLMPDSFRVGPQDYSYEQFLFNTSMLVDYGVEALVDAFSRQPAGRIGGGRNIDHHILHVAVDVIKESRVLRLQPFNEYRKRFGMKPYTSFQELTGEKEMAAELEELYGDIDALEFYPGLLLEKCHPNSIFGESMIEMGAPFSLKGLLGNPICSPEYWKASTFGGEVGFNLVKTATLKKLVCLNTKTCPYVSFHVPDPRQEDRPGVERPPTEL

[3] = biological target: T2, Prostaglandin G/H synthase 2 (Homo sapiens, UniProt P35354)
T2 sequence (P35354 whole entry): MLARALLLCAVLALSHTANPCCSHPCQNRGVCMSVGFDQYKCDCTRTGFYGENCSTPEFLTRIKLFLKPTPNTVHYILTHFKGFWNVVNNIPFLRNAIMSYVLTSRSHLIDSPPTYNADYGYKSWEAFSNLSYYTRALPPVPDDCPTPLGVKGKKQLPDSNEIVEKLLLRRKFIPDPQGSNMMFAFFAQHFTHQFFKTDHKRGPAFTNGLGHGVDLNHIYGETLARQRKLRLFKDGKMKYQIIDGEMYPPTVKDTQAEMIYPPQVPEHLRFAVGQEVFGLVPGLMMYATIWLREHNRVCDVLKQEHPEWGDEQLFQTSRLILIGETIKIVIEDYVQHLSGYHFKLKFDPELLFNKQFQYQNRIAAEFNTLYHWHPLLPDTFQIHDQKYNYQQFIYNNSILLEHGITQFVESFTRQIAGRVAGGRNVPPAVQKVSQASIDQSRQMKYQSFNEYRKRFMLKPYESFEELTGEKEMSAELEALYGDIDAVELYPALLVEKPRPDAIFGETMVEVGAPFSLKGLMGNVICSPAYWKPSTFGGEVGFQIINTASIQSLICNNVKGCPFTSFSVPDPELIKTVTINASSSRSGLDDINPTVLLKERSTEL

[4] = Solubility of compound in normal saline; format: physicochemical
[5] = Dissociation constant, pKa of compound; format: physicochemical

Row | SMILES | Ratio IC50 [1] | IC50 [2] [µM] | IC50 [3] [µM] | solubility [4] | pKa [5]
1 | NS(=O)(=O)c1ccc(-c2conc2-c2ccccc2)cc1 | > 2100 | > 100 | 0.048 |  | 
2 | CS(=O)(=O)c1ccc(-c2cc(-c3ccc(F)cc3)no2)cc1 |  | > 100 | > 100 |  | 
3 | NS(=O)(=O)c1ccc(-c2cc(-c3ccccc3)no2)cc1 | > 9.3 | > 100 | 10.8 |  | 
4 | CS(=O)(=O)c1ccc(-c2cc(-c3ccccc3)no2)cc1 | > 7.4 | > 100 | 13.5 |  | 
5 | NS(=O)(=O)c1ccc(-c2cc(-c3ccc(F)cc3)no2)cc1 | > 1.2 | > 100 | 81.2 |  | 
6 | C[Si](C)(C)c1c(-c2ccccc2)noc1-c1ccc(S(N)(=O)=O)cc1 | > 9 | > 100 | 11.1 |  | 
7 | C[Si](C)(C)c1c(-c2ccccc2)noc1-c1ccc(S(C)(=O)=O)cc1 |  | > 100 | > 100 |  | 
8 | Cc1onc(-c2ccc(F)cc2)c1-c1ccc(S(N)(=O)=O)cc1 | > 1400 | > 100 | 0.073 |  | 
9 | CS(=O)(=O)c1ccc(-c2c(-c3ccc(F)cc3)noc2C(=O)c2ccccc2)cc1 |  | > 100 | > 100 |  | 
10 | CCC(=O)NS(=O)(=O)c1ccc(-c2c(-c3ccccc3)noc2C)cc1 [PARECOXIB] |  |  |  | > 50 mg/mL | 
11 | NS(=O)(=O)c1ccc(-c2conc2-c2ccc(F)cc2)cc1 | > 2400 | > 100 | 0.042 |  | 
12 | C[Si](C)(C)c1onc(-c2ccccc2)c1-c1ccc(S(N)(=O)=O)cc1 | > 770 | > 100 | 0.13 |  | 
13 | COC(=O)c1onc(-c2ccc(F)cc2)c1-c1ccc(S(C)(=O)=O)cc1 |  | > 100 | > 100 |  | 
14 | CS(=O)(=O)c1ccc(-c2conc2-c2ccccc2)cc1 | > 400 | > 100 | 0.247 |  | 
15 | Cc1onc(-c2ccccc2)c1-c1ccc(S(N)(=O)=O)cc1 [VALDECOXIB] |  |  |  | 10 mM | 9.8
16 | CS(=O)(=O)c1ccc(-c2c(-c3ccc(F)cc3)noc2C(F)(F)F)cc1 | > 12 | > 100 | 8.14 |  | 
17 | CS(=O)(=O)c1ccc(-c2conc2-c2ccc(F)cc2)cc1 | > 1800 | > 100 | 0.057 |  | 

Results, then the compound that gave them:

Row | Ratio IC50 [1] | IC50 [2] [µM] | IC50 [3] [µM] | solubility [4] | pKa [5] | SMILES
18 | 28.7 | 10.1 | 0.351 |  |  | CS(=O)(=O)c1ccc(-c2c(-c3ccc(F)cc3)noc2Cl)cc1
19 | > 7 | > 100 | 13.8 |  |  | CS(=O)(=O)c1ccc(-c2c(-c3ccc(F)cc3)noc2C=O)cc1
20 |  | > 100 | > 100 |  |  | C[Si](C)(C)c1c(-c2ccc(F)cc2)noc1-c1ccc(S(C)(=O)=O)cc1
21 | 23.9 | > 100 | 4.17 |  |  | C[Si](C)(C)c1onc(-c2ccccc2)c1-c1ccc(S(C)(=O)=O)cc1
22 | > 110 | > 100 | 0.93 |  |  | C[Si](C)(C)c1onc(-c2ccc(F)cc2)c1-c1ccc(S(N)(=O)=O)cc1
23 | > 2.6 | > 100 | 38.2 |  |  | C[Si](C)(C)c1c(-c2ccc(F)cc2)noc1-c1ccc(S(N)(=O)=O)cc1
24 | > 54 | > 100 | 1.87 |  |  | C[Si](C)(C)c1onc(-c2ccc(F)cc2)c1-c1ccc(S(C)(=O)=O)cc1
25 |  | > 100 | > 100 |  |  | CC(=O)c1onc(-c2ccc(F)cc2)c1-c1ccc(S(C)(=O)=O)cc1
